Measured values from PMC12225012, “Identification and Application of a Novel Patulin Degrading Enzyme From Meyerozyma guilliermondii” (Advanced Science, 2025).

Target: T1, MgSDR1 (Meyerozyma guilliermondii, UniProt A5DPG9)
T1 construct: gene PGUG_05170; pET-30a(+) BamHI/XhoI, N-terminal 6xHis tag, E. coli Rosetta (DE3), imidazole-eluted, approx. 40 kDa with tag; catalytic triad Ser174-Tyr188-Lys192; GXXXGXG and YXXXK motifs
Experiment: degradation kinetics (details in supplement)
Type: biochemical
Details: co-substrate NADPH; pH and temperature of the kinetic assay not given in the main text

T1 sequence (A5DPG9 entry or part of it): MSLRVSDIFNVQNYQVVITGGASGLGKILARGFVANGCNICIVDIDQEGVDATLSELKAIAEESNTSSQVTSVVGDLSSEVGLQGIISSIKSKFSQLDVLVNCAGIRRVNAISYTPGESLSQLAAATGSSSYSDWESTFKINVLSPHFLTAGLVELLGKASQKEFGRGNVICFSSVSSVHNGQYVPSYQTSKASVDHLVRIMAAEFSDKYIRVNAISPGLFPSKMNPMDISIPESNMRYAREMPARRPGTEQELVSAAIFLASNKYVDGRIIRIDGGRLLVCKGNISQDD

O=C1C=C2C(=CCOC2O)O1 (stereo not shown) [PAT]
Km: 1420 µM
